Experimental data as given in patent publication US8236761B2, “C-Met receptor regulation by angiotensin IV (AT4) receptor ligands” (Washington State University Research Foundation, priority 2006, dated 2012).
Non-standard residues stand in square brackets, D forms with d. No end group written: not given here. Nle = CCCC[C@H](N)C(=O)O

Tests used:
Erk1/2, Akt = assay: Erk1/2 and Akt phosphorylation in HGF-treated B16-F10 cells (scratch wound assay); assay type: cell-based, murine
Description: Immunoprecipitation and Western blotting. Cells were serum starved for two hours in DMEM before treatment. Cells were harvested using RIPA lysis buffer (Upstate Biotechnol. Inc., Lake Placid, N.Y.) with phosphatase inhibitor cocktails 1 and 2 (Sigma, St Louis, Mo., USA). Protein concentration was determined using the BCA assay (Pierce, Rockford, Ill., USA). Lysates were incubated with antibody overnight at 4° C. Immunoprecipitation controls received mouse non-specific Ig (Upstate). Proteins were captured with protein-A agarose (Upstate) and were washed with PBS. Proteins were resolved using SDS-PAGE electrophoresis (Criterion, BioRad, Hercules, Calif., USA), transferred to nitrocellulose, and incubated with appropriate antibodies. Proteins were visualized using the Supersignal West Pico Chemiluminescent Substrate system (Pierce). The film images were digitized and analyzed using TotalLab® software (AmershamPharmacia/GE HealthCare, Piscataway, N.J.).
In addition, molecules associated with proliferation and migration signal transduction in B16-F10 melanoma cells were investigated in the scratch wound assay. HGF alone promoted enhanced phosphorylation of the signal transduction molecules Erk1/2, an effect that was attenuated by the presence of Norleual (FIG. 11B).

c-Met = c-Met (Homo sapiens, UniProt P08581); assay: HGF-induced Met/Gab1 association in HUVEC (IP/IB); assay type: cell-based; details: 5 minutes treatment
Chain of c-Met (P08581 308-1390 limits assumed): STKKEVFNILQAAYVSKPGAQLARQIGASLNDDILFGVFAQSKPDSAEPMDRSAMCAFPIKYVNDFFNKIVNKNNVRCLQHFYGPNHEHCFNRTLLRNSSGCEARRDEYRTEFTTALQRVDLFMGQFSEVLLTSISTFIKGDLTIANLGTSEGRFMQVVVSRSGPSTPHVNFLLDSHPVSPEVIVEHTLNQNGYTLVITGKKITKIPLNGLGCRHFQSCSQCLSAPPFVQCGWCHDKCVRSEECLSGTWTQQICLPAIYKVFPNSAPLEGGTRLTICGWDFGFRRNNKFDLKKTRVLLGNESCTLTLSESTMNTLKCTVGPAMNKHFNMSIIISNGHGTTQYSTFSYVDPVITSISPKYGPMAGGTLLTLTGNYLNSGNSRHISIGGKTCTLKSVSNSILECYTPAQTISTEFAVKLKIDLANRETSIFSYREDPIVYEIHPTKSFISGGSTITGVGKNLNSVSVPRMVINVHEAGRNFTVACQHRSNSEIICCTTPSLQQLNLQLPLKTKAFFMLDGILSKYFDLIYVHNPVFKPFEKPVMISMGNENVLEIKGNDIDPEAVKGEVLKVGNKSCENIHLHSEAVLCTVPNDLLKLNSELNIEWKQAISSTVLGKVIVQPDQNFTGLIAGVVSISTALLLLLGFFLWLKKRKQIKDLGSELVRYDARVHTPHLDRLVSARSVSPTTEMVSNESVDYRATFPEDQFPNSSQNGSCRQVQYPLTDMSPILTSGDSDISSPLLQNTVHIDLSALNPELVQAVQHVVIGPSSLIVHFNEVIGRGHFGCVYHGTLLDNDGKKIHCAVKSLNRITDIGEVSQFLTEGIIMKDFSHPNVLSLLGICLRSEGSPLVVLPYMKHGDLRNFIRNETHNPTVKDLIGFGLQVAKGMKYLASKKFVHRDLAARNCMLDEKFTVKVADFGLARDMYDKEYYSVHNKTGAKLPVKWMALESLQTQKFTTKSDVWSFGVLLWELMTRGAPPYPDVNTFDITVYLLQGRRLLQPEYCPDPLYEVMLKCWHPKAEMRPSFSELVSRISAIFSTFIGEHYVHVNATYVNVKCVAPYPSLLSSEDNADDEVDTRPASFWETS
Chain of c-Met (P08581 25-307 limits assumed): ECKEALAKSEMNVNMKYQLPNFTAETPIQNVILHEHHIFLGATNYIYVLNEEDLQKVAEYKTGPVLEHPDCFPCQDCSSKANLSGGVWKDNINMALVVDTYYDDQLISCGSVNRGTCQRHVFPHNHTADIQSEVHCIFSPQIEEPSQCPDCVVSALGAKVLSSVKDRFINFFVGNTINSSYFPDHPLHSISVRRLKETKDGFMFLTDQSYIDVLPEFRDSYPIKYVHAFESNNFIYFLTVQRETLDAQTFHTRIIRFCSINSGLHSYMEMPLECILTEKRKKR
Description: FIG. 16 depicts inhibition of angiogenesis by Norleual (Compound 2, SEQ ID NO:43) in the mouse aortic ring assay. Rings were incubated in EGM-2 media (Cambrex) with (n=8) or without (n=6) 100 pM Norleual for four days. Digital photos of the rings were taken on day four. FIG. 16A: Quantification of aortic ring angiogenesis. Areas covered by angiogenic sprouts were quantified from day four ring photos, control (−) and Norelual treated (+) (p-value=0.012* and error bars indicate ±SEM). FIG. 16B: HUVECs were treated for 5 minutes with HGF and/or Norleual at indicated concentrations. Lysates were IP with anti-c-Met and IB with anti-c-Met or Gab1.
Immunoprecipitation and Western blotting. Cells were serum starved for two hours in DMEM before treatment. Cells were harvested using RIPA lysis buffer (Upstate Biotechnol. Inc., Lake Placid, N.Y.) with phosphatase inhibitor cocktails 1 and 2 (Sigma, St Louis, Mo., USA). Protein concentration was determined using the BCA assay (Pierce, Rockford, Ill., USA). Lysates were incubated with antibody overnight at 4° C. Immunoprecipitation controls received mouse non-specific Ig (Upstate). […] The film images were digitized and analyzed using TotalLab® software (AmershamPharmacia/GE HealthCare, Piscataway, N.J.).
See Example 1 for Materials and Methods. Angiogenesis was evaluated with the ex vivo mouse aortic ring assay in the presence and absence of Norleual. […]

[1] = Chronic treatment: body weight, DXA body composition and pathology; assay type: in vivo, C57BL/6 mice
Description: Twenty-four five-week old C57BL/6 male mice were equally and randomly assigned to two groups. One group was assigned as control and the other treated. Treated mice were administered intermuscular (IM) injections of Norleual at 21 μg/kg/day, (40 μl injectable volume) every 48 hours for the duration of one hundred and one days. Injection sites were alternated between left and right gluteus medius. BD Ultra-Fine 3/10 cc insulin syringes were used as delivery apparatus. Mice were housed two per cage and had unlimited access to food and water. Mice were monitored daily for signs of morbidity. Mice were also weighed on a weekly basis. C57/BL6 mice were treated either with vehicle control or with Norleual chronically for 101 days.
To assess body composition of the mice, the Comparative Orthopedic Research Laboratory at the Washington State University Veterinary School was utilized. A Hologic QDR4500A fan beam dual-energy X-ray absorptiometer (DXA, Hologic Inc., Bedford, Mass.) was used to assess the lean body mass (muscle), fat, and bone composition of each mouse on day one hundred one of the experiment. Mice were sacrificed and DXA scans were performed. Due to the volume limitations of the DXA instrument and to permit time for gross pathology, half of the mice were sacrificed and analyzed on day 101. The remaining mice were sacrificed and analyzed 22 hours later. Control and treated mice were split evenly among the two sacrifice episodes. Data were collected and the control group was compared to the Norleual treated group by two-tailed student's t-tests using InStat software (GraphPad, San Diego, Calif.). Figures were created using GraphPad Prism software.
Gross pathology and microscopic pathological evaluation on autopsy tissue were performed in blinded fashion on animals following sacrifice, with attention to multiple organs.

With “Nle-Tyr-Leu-ψ-His-Pro-Phe ([Nle]YLHPF; also: reduced peptide bond psi(CH2NH2) between Leu and His) [Norleual]” the “HGF-enhanced phosphorylation of Erk1/2” value (Erk1/2, Akt) was “attenuated”, the “HGF-induced Akt phosphorylation” value (Erk1/2, Akt) was “did not affect” and the “HGF-induced Met/Gab1 association in HUVEC” value (c-Met) was “inhibited”. For the same substance, the “Visual inspection of animals versus control” value ([1]; 101 days treatment) was “visibly less bulky”, the “Scale measured weights versus control mice” value ([1]; IM 21 μg/kg/day every 48 hours, day 101, p=0.0130) was “significantly lower” and the “Distribution of lipid vacuoles in the liver relative to control animals” value ([1]; autopsy tissue, blinded pathology) was “marked reduction”. The “DXA measured bone mineral density versus control mice” value ([1]; day 101) was “not statistically significant”, the “Percent fat versus control mice (DXA)” value ([1]; day 101, p<0.0001) was “significantly lower” and the “DXA measured mass versus control mice” value ([1]; day 101, p=0.0146) was “significantly lower”. For the same substance, the “DXA measured area versus control mice” value ([1]; day 101, p=0.023) was “significantly lower” and the “Lean body mass+bone mineral content (BMC) versus control mice (DXA)” value ([1]; day 101, p=0.18) was “not significantly different”.
